The values that follow come from US12247045B2, “MAP4K4 inhibitors” (Imperial College Innovations Limited, priority 2018, dated 2025).

Each structure is given as a SMILES string. A value given as a limit tells only on which side of the number the result lay.

The test deals with T1, human MAP4K4 kinase domain (Homo sapiens, UniProt O95819).
T1 construct: 0.5 nM human MAP4K4 kinase domain (Invitrogen); purchased Invitrogen
T1 sequence (O95819 25-289 limits assumed): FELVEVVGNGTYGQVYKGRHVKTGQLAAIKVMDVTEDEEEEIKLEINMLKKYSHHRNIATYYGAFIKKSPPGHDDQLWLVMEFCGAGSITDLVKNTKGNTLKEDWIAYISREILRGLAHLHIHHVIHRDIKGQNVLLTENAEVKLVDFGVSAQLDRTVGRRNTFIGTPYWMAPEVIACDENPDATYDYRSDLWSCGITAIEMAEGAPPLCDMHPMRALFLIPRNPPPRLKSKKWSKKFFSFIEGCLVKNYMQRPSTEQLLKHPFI
Briefly: MAP4K4 kinase activity, CisBio HTRF Transcreener ADP assay. Type of test: biochemical. As to conditions: IC50 category; ATP at Km (10 μM), 0.5 nM kinase domain, 2 h; read-out: MAP4K4. An excerpt: Compounds of the present invention were screened for their inhibitory activity against MAP4K4, versus selected off-target hits found with early members of this chemical series. MAP4K4 kinase activity was monitored using the CisBio HTRF Transcreener ADP assay, a competitive immunoassay with a reproducible Z′>0.6. In the detection step, endogenous ADP and d2-labeled ADP compete for binding an anti-ADP monoclonal antibody labelled with Eu^3+ cryptate. A ratiometric fluorescent read-out is used at 665 and 620 nm. Reactions were performed in the presence of 1% DMSO with ATP added at Km (10 μM), 0.5 nM human MAP4K4 kinase domain (Invitrogen), 1 μM biotin-myelin basic protein as substrate (Invitrogen), and extension of reaction time to 2 h. Assays were run in Greiner low volume plates with a final reaction volume of 10 μl. The MAP4K4 inhibition data are provided in Table 41 below for selected compounds of the present invention. The data has been categorised based on the IC50 value of the compound as “A”, “B” or “C”. IC50: A≤100 nM; 100 nM<B≤1 μM; 1 μM<C; nd=not determined.
`COCCCn1cc(-c2cn(-c3ccccc3)c3nc[nH]c(=O)c23)cn1` [Ex-64]: the IC50 was no more than 100 nM. The result for `COCCn1cc(-c2cn(-c3ccccc3)c3nc[nH]c(=O)c23)cn1` [Ex-62] reads no more than 100 nM; that for `COCCOc1ccc(-c2cn(-c3cncc(F)c3)c3nc[nH]c(=O)c23)cc1` [Ex-85], no more than 100 nM. In the case of `O=c1[nH]cnc2c(-c3ccncc3F)cn(-c3ccccc3)c12` [Ex-121] it was greater than 1000 nM; in that of `COCCOc1ccc(-c2cn(-c3cccnc3)c3cc[nH]c(=O)c23)cc1` [Ex-140, 3-[4-(2-Methoxy-ethoxy)-phenyl]-1-pyridin-3-yl-1,5-dihydro-pyrrolo[3,2-c]pyridin-4-one], no more than 100 nM; in that of `CC(C)(O)COc1ccc(-c2cn(-c3cc[n+]([O-])cc3)c3nc[nH]c(=O)c23)cc1` [Ex-98], 100 to 1000 nM.

In the case of `CNCCn1cc(-c2cn(-c3ccccc3)c3nc[nH]c(=O)c23)cn1` [Ex-109], the IC50 is 100 to 1000 nM. As for `COc1ccc(-c2cn(-c3ccccc3)c3c(=O)[nH]cnc23)cn1` [Ex-132], the IC50 lay in the range of 100 to 1000 nM. In the case of `O=c1[nH]cnc2c1c(-c1cnc(NCCO)nc1)cn2-c1ccccc1` [Ex-49], the IC50 was no more than 100 nM.

For the compound `O=c1[nH]cnc2c1c(-c1ccc[nH]1)cn2-c1ccccc1` [Ex-56, 7-Phenyl-5-(1H-pyrrol-2-yl)-3,7-dihydro-pyrrolo[2,3-d]pyrimidin-4-one], the IC50 was no more than 100 nM.

Regarding `O=c1[nH]cnc2c1c(-c1ccc(NCCO)nc1)cn2-c1ccccc1` [Ex-48, 5-[6-(2-Hydroxy-ethylamino)-pyridin-3-yl]-7-phenyl-3,7-dihydro-pyrrolo[2,3-d]pyrimidin-4-one], the IC50 was no more than 100 nM.

Regarding `O=c1cc(-c2cn(-c3ccccc3)c3c(=O)[nH]cnc23)cc[nH]1` [Ex-128], the IC50 fell in the range of 100 to 1000 nM. In the case of `COCCNc1ccc(-c2cn(-c3ccccc3)c3nc[nH]c(=O)c23)cn1` [Ex-38] it was no more than 100 nM. `COc1ccc(-c2cn(-c3ccccc3)c3nc[nH]c(=O)c23)cn1` [Ex-18]: the IC50 is no more than 100 nM. The result for `CNCCC(=O)Nc1ccc(-c2cn(-c3ccncc3)c3nc[nH]c(=O)c23)cc1` [Ex-10] reads 100 to 1000 nM. In the case of `O=c1[nH]cnc2c(-c3cccc4cn[nH]c34)cn(-c3ccccc3)c12` [Ex-117] it was 100 to 1000 nM; in that of `O=c1[nH]cnc2c1c(-c1ccc(OC(F)(F)CO)cc1)cn2-c1cccnc1` [Ex-77], no more than 100 nM; in that of `O=c1[nH]cnc2c1c(-c1cnn(Cc3ccccc3)c1)cn2-c1ccccc1` [Ex-23], no more than 100 nM.

Consider `O=c1[nH]cnc2c1c(-c1ccc(OCCC3(O)COC3)cc1)cn2-c1cccnc1` [Ex-91], for which the IC50 was no more than 100 nM. In the case of `O=c1[nH]cnc2c1c(-c1ccccc1)cn2-c1ccncc1` [Ex-2] it was 100 to 1000 nM; in that of `O=c1[nH]cnc2c1c(-c1ccc(OCC3(CO)COC3)cc1)cn2-c1ccncc1` [Ex-76], no more than 100 nM; in that of `Cn1ccc(-c2cn(-c3ccccc3)c3nc[nH]c(=O)c23)n1` [Ex-25], greater than 1000 nM. On to `CN(CCO)c1ncc(-c2cn(-c3ccccc3)c3nc[nH]c(=O)c23)cc1C#N` [Ex-53], for which the IC50 was no more than 100 nM. The result for `Cn1ccc(-c2cn(-c3ccccc3)c3c(=O)[nH]cnc23)n1` [Ex-122] reads greater than 1000 nM. In the case of `Cc1noc(C)c1-c1cn(-c2ccccc2)c2nc[nH]c(=O)c12` [Ex-7], the IC50 is greater than 1000 nM.

As for `Cn1cc(-c2cn(-c3ccccc3)c3nc[nH]c(=O)c23)cn1` [Ex-24], the IC50 is no more than 100 nM. In the case of `CC(C)(O)CCOc1ccc(-c2cn(-c3cccnc3)c3nc[nH]c(=O)c23)c(F)c1` [Ex-72] it was no more than 100 nM; in that of `COC(=O)Cn1cc(-c2cn(-c3ccccc3)c3nc[nH]c(=O)c23)cn1` [Ex-21], no more than 100 nM. On to `CC(C)(CO)COc1ccc(-c2cn(-c3cccnc3)c3nc[nH]c(=O)c23)cc1` [Ex-92], for which the IC50 was no more than 100 nM.

`CC(=O)NC1CC(n2cc(-c3cn(-c4ccccc4)c4nc[nH]c(=O)c34)cn2)C1` (centres unmarked) [Ex-16]: the IC50 was no more than 100 nM. Turning to `CC(C)(O)CCOc1ccc(-c2cn(-c3cccnc3)c3nc[nH]c(=O)c23)cc1C#N` [Ex-87], the IC50 was no more than 100 nM.

With `O=c1[nH]cnc2c1c(-c1cnn(CCO)c1)cn2-c1ccc(F)cc1` [Ex-55, 7-(4-fluorophenyl)-5-(1-(2-hydroxyethyl)-1H-pyrazol-4-yl)-3,7-dihydro-4H-pyrrolo[2,3-d]pyrimidin-4-one], the IC50 fell in the range of 100 to 1000 nM.

Turning to `O=c1[nH]cnc2c1c(-c1ccc(OCC3(CO)COC3)cc1)cn2-c1cccnc1` [Ex-79], the IC50 is no more than 100 nM.

Take `COCCNc1ncc(-c2cn(-c3ccncc3)c3nc[nH]c(=O)c23)cn1` [Ex-32]: the IC50 was 100 to 1000 nM. In the case of `COCCCOc1ccc(-c2cn(-c3cccnc3)c3nc[nH]c(=O)c23)cc1` [Ex-71] it was no more than 100 nM; in that of `COCCNc1ccc(-c2cn(-c3cccc(F)c3)c3nc[nH]c(=O)c23)cn1` [Ex-30], no more than 100 nM; in that of `CC(C)(O)CCOc1ccc(-c2cn(-c3cccnc3)c3ncn(COP(=O)(O)O)c(=O)c23)cc1` [Ex-102, (5-(4-(3-hydroxy-3-methylbutoxy)phenyl)-4-oxo-7-(pyridin-3-yl)-4,7-dihydro-3H-pyrrolo[2,3-d]pyrimidin-3-yl)methyl dihydrogen phosphate], greater than 1000 nM. In the case of `O=c1[nH]cnc2c1c(-c1ccccn1)cn2-c1ccccc1` [Ex-106] it was greater than 1000 nM; in that of `CN(C)CCCOc1ccc(-c2cn(-c3ccccc3)c3c(=O)[nH]cnc23)cn1` [Ex-114, 7-[6-(3-Dimethylamino-propoxy)-pyridin-3-yl]-5-phenyl-3,5-dihydro-pyrrolo[3,2-d]pyrimidin-4-one], 100 to 1000 nM; in that of `O=c1[nH]cnc2c(-c3ccc4cn[nH]c4c3)cn(-c3ccccc3)c12` [Ex-139, 7-(1H-Indazol-6-yl)-5-phenyl-3,5-dihydro-pyrrolo[3,2-d]pyrimidin-4-one], 100 to 1000 nM.

In the case of `O=c1[nH]cnc2c1c(-c1cnc(N3CC(O)C3)nc1)cn2-c1cccnc1` [Ex-37], the IC50 was greater than 1000 nM.

As to `COc1cnc(-c2cn(-c3ccccc3)c3nc[nH]c(=O)c23)cn1` [Ex-107], the IC50 is 100 to 1000 nM. In the case of `COc1ccc(-c2cn(-c3ccccc3)c3nc[nH]c(=O)c23)nc1` [Ex-105] it was 100 to 1000 nM; in that of `CC(=O)OCCn1cc(-c2cn(-c3ccc(F)cc3)c3nc[nH]c(=O)c23)cn1` [Ex-47, 2-(4-(7-(4-fluorophenyl)-4-oxo-4,7-dihydro-3H-pyrrolo[2,3-d]pyrimidin-5-yl)-1H-pyrazol-1-yl)ethyl Acetate], 100 to 1000 nM. In the case of `O=c1[nH]cnc2c(-c3cccnc3)cn(-c3ccccc3)c12` [Ex-124], the IC50 lay in the range of 100 to 1000 nM. The result for `CC(C)(O)COc1ccc(-c2cn(-c3ccccc3)c3nc[nH]c(=O)c23)cn1` [Ex-46] reads no more than 100 nM; that for `COCCOc1ccc(-c2cn(-c3cccnc3)c3ncn(COP(=O)(O)O)c(=O)c23)cc1` [Ex-103], greater than 1000 nM; that for `O=c1[nH]cnc2c(-c3ccnnc3)cn(-c3ccccc3)c12` [Ex-116], 100 to 1000 nM. In the case of `CC(C)(N)CCOc1ccc(-c2cn(-c3cccnc3)c3nc[nH]c(=O)c23)cc1` [Ex-111] it was 100 to 1000 nM; in that of `O=c1[nH]cnc2c(-c3ccccc3)cn(-c3cncc(F)c3)c12` [Ex-44], no more than 100 nM; in that of `CC(=O)N1CC(n2cc(-c3cn(-c4cccc(F)c4)c4nc[nH]c(=O)c34)cn2)C1` [Ex-11], no more than 100 nM. In the case of `COCCn1cc(-c2cn(-c3cccc(F)c3)c3nc[nH]c(=O)c23)cn1` [Ex-20] it was no more than 100 nM. Take `CC(=O)N1CC(n2cc(-c3cn(-c4cccnc4)c4nc[nH]c(=O)c34)cn2)C1` [Ex-35]: the IC50 is 100 to 1000 nM.

On to `CN(C)CCCOc1ccc(-c2cn(-c3cccnc3)c3nc[nH]c(=O)c23)cc1` [Ex-33], for which the IC50 is no more than 100 nM. The result for `COc1ccc(-n2cc(-c3ccc(OCCC(C)(C)O)cc3)c3c(=O)[nH]cnc32)cn1` [Ex-86] reads no more than 100 nM; that for `O=c1[nH]cnc2c(-c3ccc(OC4CC4)nc3)cn(-c3ccccc3)c12` [Ex-137, 7-(6-cyclopropoxypyridin-3-yl)-5-phenyl-3,5-dihydro-4H-pyrrolo[3,2-d]pyrimidin-4-one], 100 to 1000 nM; that for `Nc1cc(-c2cn(-c3ccccc3)c3nc[nH]c(=O)c23)ccn1` [Ex-8], no more than 100 nM. In the case of `O=c1[nH]cnc2c1c(-c1cnc(NCCO)nc1)cn2-c1cccnc1` [Ex-45] it was 100 to 1000 nM; in that of `COCCn1cc(-c2cn(-c3cccnc3)c3nc[nH]c(=O)c23)cn1` [Ex-19], 100 to 1000 nM.

On to `CC(C)(O)CCOc1ccc(-c2cn(-c3ccccc3)c3nc[nH]c(=O)c23)cn1` [Ex-75], for which the IC50 was no more than 100 nM. `O=c1[nH]cnc2c(-c3ccncc3)cn(-c3ccccc3)c12` [Ex-119, 5-Phenyl-7-pyridin-4-yl-3,5-dihydro-pyrrolo[3,2-d]pyrimidin-4-one]: the IC50 lay in the range of 100 to 1000 nM. The result for `COCCNc1ccc(-c2cn(-c3cccnc3)c3nc[nH]c(=O)c23)cn1` [Ex-39] reads 100 to 1000 nM; that for `Cc1ccc(-c2cn(-c3ccccc3)c3c(=O)[nH]cnc23)cn1` [Ex-131], greater than 1000 nM; that for `CN1CCN(CCCOc2ccc(-c3cn(-c4cccnc4)c4nc[nH]c(=O)c34)cc2)CC1` [Ex-43], no more than 100 nM. `CC(C)(O)CCOc1ccc(-c2cn(-c3cccnc3)c3nc[nH]c(=O)c23)cc1F` [Ex-73]: the IC50 was no more than 100 nM.
